#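 Five concentrations, 48 hours, 96-well plates. TGI denotes the concentration required for complete inhibition of growth.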 Where a SMILES comes first, the peptide text is derived from it. The star is where a group is joined. Boc = CC(C)(C)OC(=O)*
# What was measured:
# Assay in all cases: inhibition of tumour cell growth, NCI panel, 48 h
# [1] = test system: 786-0 renal
# [2] = test system: A549 NSCLC
# [3] = test system: CCRF-CEM leukemia
# [4] = test system: HOP-62 NSCLC
# [5] = test system: K-562 leukemia
# [6] = test system: NCI-H23 lung
# [7] = test system: NCI-H460 lung
# [8] = test system: OVCAR-3 ovarian
# [9] = test system: OVCAR-4 ovarian
# [10] = test system: OVCAR-5 ovarian
# [11] = test system: RPMI-8226 leukemia
# [12] = test system: SF-268 CNS
# [13] = test system: SN12C renal
# [14] = test system: SR leukemia
# [15] = test system: SW-620 colon
# [16] = test system: BT-549 breast
# [17] = test system: DU-145 prostate
# [18] = test system: MDA-MB-231 breast
# [19] = test system: SF-539 CNS
Structure (SMILES),TGI [1] [µM],TGI [2] [µM],TGI [3] [µM],TGI [4] [µM],TGI [5] [µM],TGI [6] [µM],TGI [7] [µM],TGI [8] [µM],TGI [9] [µM],TGI [10] [µM],TGI [11] [µM],TGI [12] [µM],TGI [13] [µM],TGI [14] [µM],TGI [15] [µM],TGI [16] [µM],TGI [17] [µM],TGI [18] [µM],TGI [19] [µM]
COc1cccc(NC(=O)CSc2nnc(-c3ccc(NC(C)=O)cc3)o2)c1,> 100,> 100,> 100,> 100,> 100,> 100,> 100,> 100,> 100,> 100,> 100,> 100,> 100,> 100,> 100,–,–,–,–
O=C(NC1CCCCC1NC(c1ccccc1)(c1ccccc1)c1ccccc1)C(=O)NC1CCCCC1NC(c1ccccc1)(c1ccccc1)c1ccccc1 (stereo not given),> 100,> 100,> 100,> 100,> 100,> 100,> 100,> 100,76.3,> 100,> 100,> 100,> 100,> 100,> 100,> 100,> 100,> 100,> 100
C/C=C1\CN2CCc3c([nH]c4ccccc34)C2CC1C(=O)OC (stereo not given),> 322,> 322,> 322,> 322,> 322,> 322,> 322,> 322,–,> 322,> 322,> 322,> 322,> 322,> 322,–,–,–,> 322
CS(=O)(=O)c1ccc(-c2cc(-c3ccc(S(C)(=O)=O)cc3)[n+](-c3cc(-c4ccc(S(C)(=O)=O)cc4)c([O-])c(-c4ccc(S(C)(=O)=O)cc4)c3)c(-c3ccc(S(C)(=O)=O)cc3)c2)cc1,> 100,> 100,> 100,> 100,> 100,> 100,> 100,> 100,> 100,> 100,> 100,> 100,> 100,> 100,> 100,–,–,–,> 100
O=C(O)c1ccc(C2COc3ccc(Cl)cc3C2)cc1 (stereo not given),> 100,> 100,> 100,> 100,> 100,> 100,> 100,> 100,–,> 100,> 100,> 100,> 100,> 100,> 100,–,–,–,> 100
CCn1c2ccccc2c2ccc3c(c21)C(=O)C=CC3=O,3.3,> 100,> 100,40,9.19,51.1,45.5,26.6,14.2,44.1,> 100,40,33.5,–,–,–,–,–,44
O=c1[nH]cc(COCCCO)c(=O)[nH]1,> 100,> 100,> 100,> 100,> 100,> 100,> 100,> 100,> 100,> 100,> 100,> 100,> 100,> 100,> 100,–,–,–,> 100
CN(N=O)C(=O)ON1C(=O)CCC1=O,> 100,> 100,> 100,> 100,> 100,> 100,> 100,> 100,> 100,> 100,> 100,> 100,–,–,> 100,–,–,–,> 100
CCN1CCC(C)OP1(=O)Cc1ccccc1 (stereo not given),> 100,> 100,–,> 100,> 100,> 100,> 100,> 100,> 100,> 100,> 100,> 100,–,> 100,> 100,> 100,> 100,> 100,> 100
CC1(C)OC(=O)C(C#N)=C1/C=C/c1coc2ccc(Cl)cc2c1=O,> 100,> 100,87,79.3,> 100,52,43.8,46.2,55,> 100,> 100,> 100,96,> 100,> 100,–,–,–,–
CC(=O)C(CN(CC(C)C)CC(C)C)C(c1ccccc1)c1c(O)c2ccccc2oc1=O (stereo not given),> 100,> 100,–,> 100,–,> 100,–,> 100,> 100,> 100,> 100,> 100,> 100,–,> 100,–,–,–,> 100
O=c1nc(NC2CCCCO2)ccn1CCO (stereo not given),> 100,> 100,> 100,> 100,> 100,–,> 100,> 100,> 100,> 100,> 100,> 100,> 100,> 100,> 100,–,–,–,> 100
CC(=O)NC(CCCNC(=O)N(CCCl)N=O)C(=O)NCc1ccccc1 (stereo not given),> 100,> 100,> 100,> 100,> 100,> 100,> 100,> 100,> 100,–,> 100,> 100,> 100,> 100,> 100,–,–,–,69.6
Cc1ccc(/C=C/C(=O)C(C)(C)CN2CCCCC2)cc1,18.9,33.1,10.4,29.5,12,30.5,23.5,8.65,22.9,30,14.7,36.2,15.1,–,7.99,–,–,–,16.8
Clc1ccc(Nc2nc3ccccc3nc2-c2cccs2)cc1Cl,> 100,> 100,> 100,> 100,–,> 100,> 100,> 100,–,> 100,> 100,> 100,> 100,> 100,> 100,–,–,–,> 100
COc1ccc(CC2(O)C3CC4CCC2C4C3)cc1 (stereo not given),> 100,> 100,> 100,> 100,> 100,> 100,> 100,> 100,> 100,> 100,> 100,> 100,> 100,> 100,> 100,> 100,–,–,–
CCCP1(=O)C=C(C)C(=C(Cl)Cl)C(C)=C1 (stereo not given),> 100,> 100,> 100,> 100,> 100,85.5,> 100,> 100,> 100,> 100,–,88.3,66.7,77.4,> 100,–,–,–,> 100
CC(C)(C)OC(=O)NC(Cc1ccc(O)cc1)C(=O)N1CCCC1C(=O)O (stereo not drawn) (Boc-Tyr-Pro-OH; configuration not given here),> 100,> 100,> 100,> 100,> 100,> 100,> 100,> 100,> 100,> 100,> 100,> 100,> 100,> 100,> 100,–,–,–,> 100
O=C(CSc1nnc(Cc2ccccc2)o1)Nc1ccccc1,> 100,> 100,> 100,> 100,> 100,> 100,> 100,> 100,> 100,> 100,> 100,> 100,> 100,–,–,–,–,–,> 100
COC(=O)c1onc(-c2c(OC)cc(OC)cc2OC)c1C(=O)OC,> 100,> 100,> 100,> 100,> 100,> 100,> 100,> 100,> 100,> 100,> 100,> 100,–,> 100,> 100,–,–,–,–
c1ccc2c(c1)C1CCCCCC21N1CCOCC1 (stereo not given),> 100,> 100,> 100,> 100,> 100,> 100,> 100,> 100,> 100,> 100,–,> 100,> 100,–,> 100,–,–,–,> 100
CC(=O)CN(Cc1cc(C)c2c(c1)c1ccccc1n2Cc1ccccc1)S(=O)(=O)c1ccc(C)cc1,> 100,> 100,> 100,> 100,> 100,> 100,–,> 100,> 100,–,> 100,> 100,–,> 100,> 100,–,–,–,> 100
COc1ccc2c(c1)C(=O)C1CC(=O)CCC21 (stereo not given),> 100,> 100,> 100,> 100,> 100,> 100,> 100,> 100,> 100,> 100,> 100,> 100,> 100,> 100,> 100,–,–,–,> 100

# Source: PubChem BioAssay (NCI)
